Experimental data reported in PubChem BioAssay (NCI).
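A five-concentration, 48-hour dose response in 96-well plates underlies each endpoint, interpolated linearly between surrounding concentrations. At the GI50, growth is halved. TGI: concentration producing complete growth inhibition.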

Tests used:
Test in all cases: growth of human tumour cells (NCI), 48 h
[1] = test system: SF-295 CNS
[2] = test system: LOX IMVI melanoma
[3] = test system: IGROV1 ovarian
[4] = test system: OVCAR-3 ovarian
[5] = test system: K-562 leukemia
[6] = test system: COLO 205 colon
[7] = test system: EKVX NSCLC
[8] = test system: NCI-H226 lung
[9] = test system: HS 578T breast
[10] = test system: SW-620 colon
[11] = test system: NCI/ADR-RES ovarian
[12] = test system: NCI-H460 lung

Row | Structure (SMILES) | TGI [1] [µM] | TGI [2] [µM] | TGI [3] [µM] | TGI [4] [µM] | TGI [5] [µM] | TGI [6] [µM] | TGI [7] [µM] | TGI [8] [µM] | TGI [9] [µM] | TGI [10] [µM] | TGI [11] [µM] | TGI [12] [µM] | GI50 [4] [µM] | GI50 [5] [µM] | GI50 [6] [µM] | GI50 [8] [µM] | GI50 [9] [µM] | GI50 [10] [µM] | GI50 [11] [µM] | GI50 [12] [µM]
1 | CC(=O)OC1CC(OC2C(O)CC(OC3C(O)CC(OC4CCC5(C)C(CCC6C5CCC5(C)C(C7=CC(=O)OC7)CCC65O)C4)OC3C)OC2C)OC(C)C1OC1OC(CO)C(O)C(O)C1O (centres undefined) | 0.142 | 0.0685 | 0.289 | 0.0883 | > 100 | 0.168 | 0.0536 | 0.241 | 0.0926 | 0.148 | 0.0581 | 0.0245 |  |  |  |  |  |  |  | 
2 | COCCNCc1ccc(-c2cc3nccc(Oc4ccc(NC(=O)C5(C(=O)Nc6ccc(F)cc6)CC5)cc4F)c3s2)nc1 |  |  |  | 4.82 | 1.83 | 3.68 |  | 4.73 | 4 | 3.27 | 4.25 | 3.4 | 2.2 | 0.252 | 1.55 | 1.89 | 1.06 | 1.26 | 1.74 | 1.66
3 | CO/C=C1\OC(=O)C=C1OC | > 100 | > 100 | > 100 | > 100 | > 100 | > 100 | > 100 | > 100 |  | > 100 | > 100 | > 100 |  |  |  |  |  |  |  | 
4 | O=S(O)CCCSSSCCCS(=O)O |  | > 100 |  | > 100 | > 100 |  | > 100 |  |  |  |  | > 100 |  |  |  |  |  |  |  | 
5 | Cc1ccc(Nc2nc(=O)c3c([nH]c4ccccc43)s2)cc1 | 24.3 | 27.1 | 35.1 | 27.3 | > 100 | 24.7 | 64.2 |  | 75 | 24.3 | 29.9 | 25.7 |  |  |  |  |  |  |  | 
6 | CC1(C)N=C(c2ccccc2)SC12S[C@@H]1CCCC[C@H]1S2 | > 100 | > 100 | > 100 | > 100 | > 100 | > 100 | > 100 | > 100 | 16.8 | > 100 | > 100 | > 100 |  |  |  |  |  |  |  | 
7 | COc1cc(NCCC(=O)O)c2ncccc2c1 | > 100 | > 100 | > 100 | > 100 | > 100 |  | > 100 | > 100 | > 100 | > 100 | > 100 | > 100 |  |  |  |  |  |  |  | 
8 | c1ccc2c(c1)SCCc1cn[nH]c1-2 | > 100 | > 100 | > 100 | > 100 | > 100 | > 100 | > 100 | > 100 |  | > 100 | > 100 | > 100 |  |  |  |  |  |  |  | 
9 | NNC(=O)CCc1ccc2ccc3ccccc3c2c1 | > 100 | > 100 | > 100 | > 100 | > 100 | > 100 | 97.9 | > 100 | > 100 | > 100 | > 100 | > 100 |  |  |  |  |  |  |  | 
10 | CN(c1ccccc1)c1nc(=[N+]2CCCC2)ss1 |  |  | > 100 | > 100 | > 100 | > 100 | > 100 | > 100 |  | > 100 |  | > 100 |  |  |  |  |  |  |  | 
